Data reported in ChEMBL document CHEMBL5247643, “Discovery and Characterization of BAY-805, a Potent and Selective Inhibitor of Ubiquitin-Specific Protease USP21” (J Med Chem, 2023).
Values belong to the compound of their own block, whether it stands above or below them. Active and inactive are the calls of the source. The rule behind the calls is not given here.

What was measured:
[1] = target: T1, Ubiquitin carboxyl-terminal hydrolase 2 (Homo sapiens, UniProt O75604); experiment: Inhibition of human His-tagged USP2 (259 to 605 residues) using ubiquitin rhodamine 110 110 as substrate preincubated for 15 to 20 mins followed by enzyme addition and measured after 25 mins by fluorometric assay
T1 sequence (O75604 whole entry): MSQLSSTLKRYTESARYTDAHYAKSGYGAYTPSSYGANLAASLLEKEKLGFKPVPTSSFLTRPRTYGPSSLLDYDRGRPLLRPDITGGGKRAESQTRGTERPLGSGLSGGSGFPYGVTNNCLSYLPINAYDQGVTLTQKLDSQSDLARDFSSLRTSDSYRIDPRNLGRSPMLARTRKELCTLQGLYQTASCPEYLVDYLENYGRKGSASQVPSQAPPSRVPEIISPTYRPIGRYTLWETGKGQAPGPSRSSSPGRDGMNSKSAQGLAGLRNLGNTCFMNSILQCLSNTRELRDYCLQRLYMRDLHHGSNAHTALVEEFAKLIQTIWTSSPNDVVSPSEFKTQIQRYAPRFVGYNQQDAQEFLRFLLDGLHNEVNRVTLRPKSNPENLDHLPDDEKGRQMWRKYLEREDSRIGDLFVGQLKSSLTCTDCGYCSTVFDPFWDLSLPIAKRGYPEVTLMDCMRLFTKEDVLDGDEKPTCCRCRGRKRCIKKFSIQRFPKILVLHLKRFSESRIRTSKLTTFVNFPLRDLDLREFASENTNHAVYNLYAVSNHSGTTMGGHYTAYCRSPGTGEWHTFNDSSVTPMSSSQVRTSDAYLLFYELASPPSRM

[2] = test system: Jurkat; experiment: Antiproliferative activity against human Jurkat cells assessed as reduction in cell viability up to 30 uM incubated for 72 hrs by CellTiter-Glo luminescent assay; assay type: functional, cell-based
[3] = test system: MOLM-13; experiment: Antiproliferative activity against human MOLM-13 cells assessed as reduction in cell viability up to 30 uM incubated for 72 hrs by CellTiter-Glo luminescent assay; assay type: functional, cell-based
[4] = test system: A549; experiment: Antiproliferative activity against human A549 cells assessed as reduction in cell viability up to 30 uM incubated for 72 hrs by CellTiter-Glo luminescent assay; assay type: functional, cell-based
[5] = test system: MDA-MB-231; experiment: Antiproliferative activity against human MDA-MB-231 cells assessed as reduction in cell viability up to 30 uM incubated for 72 hrs by CellTiter-Glo luminescent assay; assay type: functional, cell-based
[6] = test system: U2OS; experiment: Antiproliferative activity against human U2OS cells assessed as reduction in cell viability up to 30 uM incubated for 72 hrs by CellTiter-Glo luminescent assay; assay type: functional, cell-based
[7] = target: T2, Ubiquitin carboxyl-terminal hydrolase 21 (Homo sapiens, UniProt Q9UK80); experiment: Inhibition of human full length USP21 using Btn-Ahx-PNIRFLD-K(Ubi)-LPQQT-GD-amide as substrate preincubated for 15 to 20 mins followed by substrate addition and measured after 25 mins by HTRF assay
T2 sequence (Q9UK80 whole entry): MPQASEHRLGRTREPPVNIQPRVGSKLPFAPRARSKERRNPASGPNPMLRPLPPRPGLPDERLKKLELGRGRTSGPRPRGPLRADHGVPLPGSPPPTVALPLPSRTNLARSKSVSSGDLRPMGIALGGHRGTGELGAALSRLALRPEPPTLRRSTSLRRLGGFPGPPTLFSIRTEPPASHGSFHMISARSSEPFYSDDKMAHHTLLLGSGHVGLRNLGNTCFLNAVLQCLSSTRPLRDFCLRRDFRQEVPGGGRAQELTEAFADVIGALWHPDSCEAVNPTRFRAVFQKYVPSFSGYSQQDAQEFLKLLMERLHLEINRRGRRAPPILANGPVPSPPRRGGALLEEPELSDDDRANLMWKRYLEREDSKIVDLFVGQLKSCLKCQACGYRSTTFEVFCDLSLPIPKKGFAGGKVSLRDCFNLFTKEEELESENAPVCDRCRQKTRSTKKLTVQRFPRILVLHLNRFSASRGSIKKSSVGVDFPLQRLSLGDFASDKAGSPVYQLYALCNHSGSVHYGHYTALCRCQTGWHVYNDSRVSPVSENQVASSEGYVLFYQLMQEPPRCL

IC50 [1]: 25 µM
SMILES: COCC(NC(=O)C1CCCC1)C(=O)Nc1nnc(Cc2ccc([N+](=O)[O-])cc2)s1 (racemic)

SMILES: CC(C)C[C@@H](NC(=O)C1(C(F)(F)F)CCCCC1)C(=O)Nc1nnc(Cc2ccc(C#N)cc2)s1
Activity [2]: inactive
Activity [3]: inactive
Activity [4]: inactive
Activity [5]: inactive
Activity [6]: inactive

IC50 [7]: 0.012 µM
SMILES: N#Cc1ccc(Cc2nnc(NC(=O)[C@H](NC(=O)C3(C(F)(F)F)CCCCC3)C3CCCC3)s2)cc1
